This note sets out measurements from ChEMBL document CHEMBL1145601, “The design and synthesis of diaryl ether second generation HIV-1 non-nucleoside reverse transcriptase inhibitors (NNRTIs) with enhanced potency versus key clinical mutations” (Bioorg Med Chem Lett, 2008).

SMILES strings stand for the structures. pIC50: −log10 of the molar value.

Series [1] deals with Human immunodeficiency virus type 1 reverse transcriptase (Human immunodeficiency virus 1, UniProt Q72547). The series is described as follows: Inhibition of HIV1 reverse transcriptase by SPA assay.
For series [2], the target named is Human immunodeficiency virus type 1 reverse transcriptase (Human immunodeficiency virus 1, UniProt Q72547, K103N). Kind of series: Inhibition of HIV1 reverse transcriptase K103N mutant by SPA assay.
In series [3] the target is Human immunodeficiency virus type 1 reverse transcriptase (Human immunodeficiency virus 1, UniProt Q72547, Y181C). The series is described as follows: Inhibition of HIV1 reverse transcriptase Y181C mutant by SPA assay.
The test system of series [4] is Human immunodeficiency virus 1. The series is described as follows: Antiviral activity against HIV1 in human MT4 cells in presence of 50% normal human serum. The format is functional. Particulars: Human immunodeficiency virus 1, MT4; read-out: CIC95.
The subject of series [5] is Human immunodeficiency virus 1. The series is described as follows: Antiviral activity against HIV1 in human MT4 cells in RPMI1640 media containing fetal bovine serum. Format: functional. Particulars: Human immunodeficiency virus 1, MT4; read-out: CIC95.
The subject of series [6] is Human immunodeficiency virus 1. Kind of series: Antiviral activity against HIV1 with RT K103N mutation in human MT4 cells in presence of 10% fetal bovine serum. The format is functional. Particulars: Human immunodeficiency virus 1, MT4; read-out: CIC95.
Series [7] has as its system Human immunodeficiency virus 1. The series is described as follows: Antiviral activity against HIV1 with RT Y181C mutation in human MT4 cells in presence of 10% fetal bovine serum. Format: functional. Particulars: Human immunodeficiency virus 1, MT4; read-out: CIC95.
Series [8] in a line: AUC in Sprague-Dawley rat at 10 mg/kg, po and 2 mg/kg, iv. The format is ADME, organism-based. Particulars: plasma.
In series [9] the test system is Human immunodeficiency virus 1. Kind of series: Antiviral activity against HIV1 with RT K103N/Y181C mutation in human MT4 cells in presence of 40% normal human serum. Format: functional, organism-based. Particulars: Human immunodeficiency virus 1, MT4.
The test system of series [10] is Human immunodeficiency virus 1. Kind of series: Antiviral activity against HIV1 with RT K103N/Y181C/G190A mutation in human MT4 cells in presence of 40% normal human serum. Particulars: Human immunodeficiency virus 1, MT4. The format is functional, organism-based.
Series [11] concerns Human immunodeficiency virus 1. The series is described as follows: Antiviral activity against HIV1 with RT Y181C mutation in human MT4 cells in presence of 40% normal human serum. Format: functional, organism-based. Particulars: Human immunodeficiency virus 1, MT4.
The nature of series [12]: Oral bioavailability in Sprague-Dawley rat at 10 mg/kg, po and 2 mg/kg, iv. The format is ADME, organism-based. Particulars: in vivo.
A short description of series [13]: AUC in Beagle dog at 0.25 mg/kg, iv. The format is ADME, organism-based, Canis lupus familiaris. Details: dose 0.25 mg/kg, route intravenous. Particulars: plasma.
A short description of series [14]: Half life in Sprague-Dawley rat at 2 mg/kg, iv. Details: dose 2 mg/kg, route intravenous. Format: ADME, organism-based. Particulars: in vivo.
Series [15] concerns Human immunodeficiency virus 1. Kind of series: Antiviral activity against HIV1 with RT K103N/G190A mutation in human MT4 cells in presence of 40% normal human serum. Particulars: Human immunodeficiency virus 1, MT4. The format is functional, organism-based.
In series [16] the test system is Human immunodeficiency virus 1. Kind of series: Antiviral activity against HIV1 with RT K101E/G190A mutation in human MT4 cells in presence of 40% normal human serum. Format: functional, organism-based. Particulars: Human immunodeficiency virus 1, MT4.
Series [17] can be described thus: Volume of distribution in Beagle dog at 0.25 mg/kg, iv. Particulars: in vivo. Details: dose 0.25 mg/kg, route intravenous. The format is ADME, organism-based, Canis lupus familiaris.
Series [18] has as its system Human immunodeficiency virus 1. The series is described as follows: Antiviral activity against HIV1 in human MT4 cells in presence of 40% normal human serum. Particulars: Human immunodeficiency virus 1, MT4. Format: functional, organism-based.
Series [19] can be described thus: Half life in Beagle dog at 0.25 mg/kg, iv. Details: dose 0.25 mg/kg, route intravenous. Particulars: in vivo. The format is ADME, organism-based, Canis lupus familiaris.
Series [20] deals with Human immunodeficiency virus 1. The series is described as follows: Antiviral activity against HIV1 with RT G190A mutation in human MT4 cells in presence of 40% normal human serum. Format: functional, organism-based. Particulars: Human immunodeficiency virus 1, MT4.
Series [21] deals with Human immunodeficiency virus 1. Kind of series: Antiviral activity against HIV1 with RT K103N mutation in human MT4 cells in presence of 40% normal human serum. Particulars: Human immunodeficiency virus 1, MT4. The format is functional, organism-based.
A short description of series [22]: Volume of distribution in Sprague-Dawley rat at 10 mg/kg, po and 2 mg/kg, iv. The format is ADME, organism-based. Particulars: in vivo.
The nature of series [23]: Clearance in Sprague-Dawley rat at 2 mg/kg, iv. Particulars: in vivo. Details: dose 2 mg/kg, route intravenous. The format is ADME, organism-based.
A short description of series [24]: Clearance in rhesus monkey at 1 mg/kg, iv. Details: dose 1 mg/kg, route intravenous. The format is ADME, organism-based, Macaca mulatta. Particulars: in vivo.
Series [25] in a line: Clearance in Beagle dog at 0.25 mg/kg, iv. Format: ADME, organism-based, Canis lupus familiaris. Particulars: in vivo. Details: dose 0.25 mg/kg, route intravenous.
Series [26] deals with Human immunodeficiency virus 1. The series is described as follows: Antiviral activity against HIV1 with RT K103N/P225H mutation in human MT4 cells in presence of 40% normal human serum. Format: functional, organism-based. Particulars: Human immunodeficiency virus 1, MT4.
In series [27] the test system is Human immunodeficiency virus 1. Kind of series: Antiviral activity against HIV1 with RT Y181C/G190A mutation in human MT4 cells in presence of 40% normal human serum. Format: functional, organism-based. Particulars: Human immunodeficiency virus 1, MT4.
The test system of series [28] is Human immunodeficiency virus 1. Kind of series: Antiviral activity against HIV1 with RT K103N/V179E mutation in human MT4 cells in presence of 40% normal human serum. The format is functional, organism-based. Particulars: Human immunodeficiency virus 1, MT4.
The nature of series [29]: Half life in rhesus monkey at 1 mg/kg, iv. The format is ADME, organism-based, Macaca mulatta. Details: dose 1 mg/kg, route intravenous. Particulars: in vivo.
Series [30] has as its system Human immunodeficiency virus 1. The series is described as follows: Antiviral activity against HIV1 with RT L100I mutation in human MT4 cells in presence of 40% normal human serum. Format: functional, organism-based. Particulars: Human immunodeficiency virus 1, MT4.
Series [31] can be described thus: AUC in rhesus monkey at 1 mg/kg, iv. Particulars: plasma. The format is ADME, organism-based, Macaca mulatta. Details: dose 1 mg/kg, route intravenous.
The nature of series [32]: Volume of distribution in rhesus monkey at 1 mg/kg, iv. Format: ADME, organism-based, Macaca mulatta. Details: dose 1 mg/kg, route intravenous. Particulars: in vivo.
Series [33] has as its system Human immunodeficiency virus 1. The series is described as follows: Antiviral activity against HIV1 with RT G190S mutation in human MT4 cells in presence of 40% normal human serum. The format is functional, organism-based. Particulars: Human immunodeficiency virus 1, MT4.
Series [34] has as its system Human immunodeficiency virus 1. Kind of series: Antiviral activity against HIV1 with RT Y188L mutation in human MT4 cells in presence of 40% normal human serum. Particulars: Human immunodeficiency virus 1, MT4. The format is functional, organism-based.

As to `N#Cc1cc(Cl)cc(Oc2cc(OCc3nc4cccc(Cl)c4o3)ccc2Cl)c1`, the negative logarithm of the IC50 (pIC50) in series [1] was 9.23; in series [2] it was 8.85; in [3] it was 8.20. For the same compound, the IC95 was determined as 0.312 µM in series [4] and 0.078 µM in series [5].
For `CS(=O)(=O)c1ccc(NC(=O)COc2ccc(Cl)c(Oc3cc(Cl)cc(C#N)c3)c2)c(Cl)c1` the same measures were 9.00, 8.88, 9.04, 0.078 µM and 0.031 µM.
Take `N#Cc1cc(Cl)cc(Oc2cc(Cl)cc(OCC(=O)Nc3ccc(S(N)(=O)=O)cc3Cl)c2)c1`: the pIC50 in series [2] is 8.46; in series [3], 8.58. Besides, the values for the IC95 in series [4] and in series [5] were 0.125 µM and 0.016 µM, respectively.
`N#Cc1cc(Cl)cc(Oc2cc(OCC(=O)Nc3ccc(S(N)(=O)=O)cc3Cl)ccc2Cl)c1`: the pIC50 in [1] was 9.85; in series [2] it was 9.68; in series [3], 9.55. In addition, the IC95 in series [6] worked out at 9.52 nM; in series [7], 0.0149 µM; in [4], 0.0239 µM; in series [5], 0.00756 µM.
In the case of `NS(=O)(=O)c1ccc(NC(=O)COc2cccc(Oc3ccccc3)c2)c(Cl)c1`, the pIC50 in series [1] was 7.29; in series [2], 6.72; in series [3] it was 6.14.
Take `N#Cc1cc(Cl)cc(Oc2cc(OCc3nc4ccccc4s3)ccc2Cl)c1`: the pIC50 in series [1] was 7.71; in series [2], 7.10; in [3], 7.26. Also, the IC95 is 1.25 µM in series [4] and 0.312 µM in series [5].
The like results for `N#Cc1cc(Cl)cc(Oc2cc(OCc3nc4cccc(Cl)c4[nH]3)ccc2Cl)c1` were, in that order, 8.49, 8.14, 7.30, 2.78 µM and 0.103 µM.
The like results for `N#Cc1cccc(Oc2cc(Cl)cc(OCC(=O)Nc3ccc(S(N)(=O)=O)cc3Cl)c2)c1` were, in that order, 9.02, 7.84, 8.92, 0.16 µM and 0.008 µM.
In the case of `Cc1cc(S(N)(=O)=O)ccc1NC(=O)COc1ccc(Cl)cc1C(=O)c1cc(Cl)cc(C#N)c1`, the negative-log IC50 (pIC50) is 8.67 in series [1], 8.50 in series [2] and 8.61 in series [3]. Besides, the IC95 worked out at 6.98 nM in series [6], 0.00328 µM in series [7], 0.0305 µM in series [4] and 0.00265 µM in series [5].
Take `Cc1cc(C)c(-n2nnnc2SCC(=O)Nc2ccc(S(N)(=O)=O)cc2Cl)c(C)c1`: the pIC50 in series [1] was 8.39; in [2] it was 7.98; in [3] it was 7.46. Further, the figures for the IC95 in [4] and in [5] were 0.062 µM and 0.016 µM, respectively.
Consider `CS(=O)(=O)c1ccc2c(c1)CCN2C(=O)COc1ccc(Cl)c(Oc2cc(Cl)cc(C#N)c2)c1`, for which the negative-log IC50 (pIC50) in [1] is 9.07; in series [2], 9.48; in series [3], 8.77. Further, the IC95 in series [6] came to 5.26 nM; in series [7] it was 0.0143 µM; in [4], 0.0297 µM; in [5] it was 0.00368 µM.
As to `NS(=O)(=O)c1ccc(NC(=O)COc2cc(Cl)cc(Oc3ccccc3)c2)c(Cl)c1`, the negative-log IC50 (pIC50) is 7.98 in series [1], 6.66 in [2] and 7.60 in series [3].
`N#Cc1cc(Cl)cc(Oc2cc(OCc3nc4cccc(Cl)c4s3)ccc2Cl)c1`: the pIC50 in series [1] was 8.51; in series [2], 8.22; in [3], 8.29. Further, the figures for the IC95 in [4] and in [5] were 1.25 µM and 0.156 µM, respectively.
As to `N#Cc1cc(Cl)cc(Oc2cc(OCc3n[nH]c4ccccc34)ccc2Cl)c1`, the exposure (AUC) in [8] is 6.2 µM·h; in [13], 0.4 µM·h; in series [31], 1.7 µM·h. The pIC50 was 6.85 in series [9]; 6.77 in [10]; 7.86 in [11]; 8.95 in [2]; 7.66 in [15]; 7.68 in series [16]. Further, the negative logarithm of the IC50 (pIC50) in series [18] was 8.33; in [3], 8.58; in series [20], 8.03; in [21] it was 8.10; in series [26], 7.53; in [27] it was 7.45. Moreover, the pIC50 in series [28] was 7.69; in series [30], 8.59; in series [33], 7.63; in series [34], less than 6.00. This compound also had a bioavailability in series [12] of 3.3%. Further, the half-life in series [14] is 282 min; in series [19], 90 min; in series [29], 486 min. Further, the IC95 was found to be 33.4 nM in [6], 0.102 µM in series [7], 0.114 µM in series [4] and 0.0226 µM in series [5]. For the same compound, the Vd in series [17] was determined as 1.2 L/kg; in [22], 2.9 L/kg; in [32] it was 7.1 L/kg. Besides, the values for the clearance in [23], in series [24] and in [25] were 13.6 mL/min/kg, 24 mL/min/kg and 28.9 mL/min/kg, respectively.
